Consider 16 compounds from patent US20220324835A1 (Nurix Therapeutics, Inc., priority 2018, published 2022).

The target in assay [1] is T1, Cbl-b (Homo sapiens, UniProt Q13191). Description: Cbl-b inhibition assay (Cbl-b activity assay, FRET, Biological Example 1; 100 mM NaCl, 60 nM Src kinase). The format is biochemical. As to conditions: upper bound stated in text lists; read-out: IC50 values in the Cbl-b inhibition assay of Biological Example 1. In short, it runs like this: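 Steps: Src kinase phosphorylates N-terminal biotinylated Avi-tagged Cbl-b; phosphorylated Cbl-b binds Bodipy-fluorescein ubiquitin-loaded UbcH5B; streptavidin-terbium on Cbl-b sits close to the fluorescein label, producing FRET. Inhibitors block UbcH5B-Ub binding.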

Assay [2] deals with T-cell. Description: CD25 cell surface staining on T-cells co-stimulated with anti-CD3 and anti-CD28 antibody (Biological Example 2). The format is cell-based, human. As to conditions: Homo sapiens, T-cell, fold change over baseline, primary human total T-cells, read-out: CD25 staining Anti-CD3/Anti-CD28 stimulation; for fold induction at 0.3 µM: 0.3 μM Cbl-b inhibitor; for fold induction at 1 µM: 1 μM Cbl-b inhibitor; for fold induction at 4 µM: 4 μM Cbl-b inhibitor. In short, it runs like this:
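Values are fold-change over baseline: readings (IL-2 release, CD25 staining) from inhibitor-treated T-cells divided against untreated cells […]. No detailed procedure stated.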

Assay [3] deals with T1, Cbl-b. The experiment in a line: Cbl-b activity assay (Cbl-b inhibition assay), TR-FRET of Cbl-b interaction with UbcH5B-Ub. The format is biochemical. The note with it: assay buffer with 100 mM NaCl, 60 nM Src kinase; read-out: Cbl-b activity IC50. In short, it runs like this: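 Compound-treated Cbl-b was incubated 1.5 h with Src kinase (60 nM final; 30 nM for asterisked values, which also used 50 mM instead of 100 mM NaCl), 1 mM ATP and 5 mM MgCl2. Binding to fluorescent Ub-loaded UbcH5B (C85K mutant) was then read by TR-FRET after 1 h more.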
On the technique in general: Time-resolved FRET reads energy transfer from a long-lived donor to a nearby acceptor.

Assay [4] has as its target Cbl-b (residues 36-427) (Homo sapiens, UniProt Q13191). Description: Cbl-b binding assay (SPR, Biacore T200). The note with it: 20° C., 1:1 binding model. The method, boiled down:
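NeutrAvidin capture chip, 20° C; 50 s injections at 50 μl/min, 90-180 s dissociation; 0.3 M NaCl regeneration. Asterisked column: 50 mM NaCl buffer and 30 nM Src kinase in place of 100 mM NaCl and 60 nM Src kinase. 1:1 fit.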
A general note: In SPR one partner is held on a chip, and binding of the other changes the refractive index at the surface.

Chain of Cbl-b (residues 36-427) (Q13191 36-427): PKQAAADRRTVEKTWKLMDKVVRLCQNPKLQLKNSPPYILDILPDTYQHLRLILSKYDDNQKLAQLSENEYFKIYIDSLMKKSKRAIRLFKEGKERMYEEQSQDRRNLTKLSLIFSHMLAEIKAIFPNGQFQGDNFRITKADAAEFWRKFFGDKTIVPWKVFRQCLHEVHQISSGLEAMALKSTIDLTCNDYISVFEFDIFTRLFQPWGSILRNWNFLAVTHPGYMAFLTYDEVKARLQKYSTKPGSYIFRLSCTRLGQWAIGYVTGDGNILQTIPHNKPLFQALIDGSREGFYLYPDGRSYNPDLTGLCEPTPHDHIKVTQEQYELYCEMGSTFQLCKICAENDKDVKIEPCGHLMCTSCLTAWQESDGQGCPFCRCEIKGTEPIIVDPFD
T1 sequence (Q13191 36-427): as above

A word on the IC50: it is the concentration that inhibits the measured activity by half. A word on the Kd: it is a measure of binding affinity in units of concentration. Regarding `Cc1cc(C(=O)Nc2cc([C@H](C)Sc3nncn3C)ccn2)nc(C(F)(F)F)c1` [Compound 103, (S)-4-methyl-N-(4-(1-((4-methyl-4H-1,2,4-triazol-3-yl)thio)ethyl)pyridin-2-yl)-6-(trifluoromethyl)picolinamide], in assay [1], the IC50 was no more than 1000 nM. Besides, in assay [2], the fold induction at 0.3 µM is less than 1, the fold induction at 1 µM is less than 1 and the fold induction at 4 µM was 1.01 to 1.3. Besides, in assay [3], the IC50 is 301 to 1000 nM. Moreover, in assay [4], the Kd was in the range of 1000 to 3000 nM.
With `C[C@H](Sc1nncn1C)c1ccnc(NC(=O)c2cc(C3CC3)cc(C(F)(F)F)n2)c1` [Compound 104, (S)-4-cyclopropyl-N-(4-(1-((4-methyl-4H-1,2,4-triazol-3-yl)thio)ethyl)pyridin-2-yl)-6-(trifluoromethyl)picolinamide], the IC50 in assay [1] is no more than 1000 nM. Also, in assay [2], the fold induction at 0.3 µM was less than 1, the fold induction at 1 µM is less than 1 and the fold induction at 4 µM was 1.01 to 1.3. The IC50 in assay [3] is 301 to 1000 nM. The compound further returned a Kd in assay [4] of 1000 to 3000 nM.
For the compound `C[C@H](Sc1nncn1C)c1ccnc(NC(=O)c2cc(Cl)cc(C(F)(F)F)n2)c1` [Compound 105, (S)-4-chloro-N-(4-(1-((4-methyl-4H-1,2,4-triazol-3-yl)thio)ethyl)pyridin-2-yl)-6-(trifluoromethyl)picolinamide], the IC50 in assay [1] is no more than 1000 nM. For the same compound, in assay [2], the fold induction at 0.3 µM was 1.01 to 1.3, the fold induction at 1 µM was 1.01 to 1.3 and the fold induction at 4 µM was less than 1. Moreover, in assay [3], the IC50 is 301 to 1000 nM. For the same compound, the Kd in assay [4] lay within 1000 to 3000 nM.
Take `Cc1ccc(C(=O)Nc2cc([C@H](C)Sc3nncn3C)ccn2)nc1C1CC1` [Compound 113, (S)-6-cyclopropyl-5-methyl-N-(4-(1-((4-methyl-4H-1,2,4-triazol-3-yl)thio)ethyl)pyridin-2-yl)picolinamide]: the IC50 in assay [1] was no more than 1000 nM. In addition, in assay [2], the fold induction at 0.3 µM was less than 1, the fold induction at 1 µM was less than 1 and the fold induction at 4 µM lay within 1.01 to 1.3. In addition, the IC50 in assay [3] was 301 to 1000 nM. In assay [4], this compound came in with a Kd of 1000 to 3000 nM.
`C[C@H](Sc1nncn1C)c1ccnc(NC(=O)c2cc3c(C(F)(F)F)cccc3[nH]2)c1` [Compound 120, N-[4-[(1S)-1-[(4-methyl-1,2,4-triazol-3-yl)sulfanyl]ethyl]-2-pyridyl]-4-(trifluoromethyl)-1H-indole-2-carboxamide]: in assay [1], the half-inhibitory concentration (IC50) was no more than 500 nM. Moreover, in assay [2], the fold induction at 0.3 µM is less than 1, the fold induction at 1 µM was less than 1 and the fold induction at 4 µM was less than 1. For the same compound, the IC50 in assay [3] is 100 to 300 nM. In assay [4], this compound had a Kd of 301 to 1000 nM.
As for `Cc1nc2cc([C@H](C)Sc3nncn3C)cc(NC(=O)c3cccc(C(F)(F)F)n3)c2o1` [Compound 130a, (S)-N-(2-methyl-5-(1-((4-methyl-4H-1,2,4-triazol-3-yl)thio)ethyl)benzo[d]oxazol-7-yl)-6-(trifluoromethyl)picolinamide], the IC50 in assay [1] is no more than 1000 nM. Also, in assay [2], the fold induction at 0.3 µM fell in the range of 1.31 to 1.5, the fold induction at 1 µM is 1.51 to 1.75 and the fold induction at 4 µM is greater than 1.76. Besides, the concentration for half-maximal inhibition (IC50) in assay [3] lay within 301 to 1000 nM. Further, the Kd in assay [4] was 301 to 1000 nM.
Turning to `C[C@H](Sc1nncn1C)c1cccc(NC(=O)c2cc(C(=O)N3CC[C@H](O)C3)ccn2)c1` [Compound 140, 4-[[(3S)-3-hydroxypyrrolidin-1-yl]carbonyl]-N-[3-[(1S)-1-[(4-methyl-4H-1,2,4-triazol-3-yl)sulfanyl]ethyl]phenyl]pyridine-2-carboxamide], the IC50 in assay [1] was no more than 500 nM. Also, in assay [2], the fold induction at 0.3 µM is 1.01 to 1.3, the fold induction at 1 µM is 1.01 to 1.3 and the fold induction at 4 µM was 1.01 to 1.3. The IC50 in assay [3] fell in the range of 100 to 300 nM. In addition, the Kd in assay [4] was in the range of 301 to 1000 nM.
On to `C[C@H](Sc1nncn1C)c1cccc(NC(=O)c2cc(C(=O)N3CC(O)C3)ccn2)c1` [Compound 148, (S)-4-(3-hydroxyazetidine-1-carbonyl)-N-(3-(1-((4-methyl-4H-1,2,4-triazol-3-yl)thio)ethyl)phenyl)picolinamide], for which the IC50 in assay [1] was no more than 500 nM. Besides, in assay [2], the fold induction at 0.3 µM is less than 1, the fold induction at 1 µM is less than 1 and the fold induction at 4 µM is less than 1. In addition, in assay [3], the IC50 is 301 to 1000 nM. Moreover, the Kd in assay [4] was in the range of 1000 to 3000 nM.
In the case of `C[C@H](Sc1nncn1C)c1cccc(NC(=O)c2cc(C(=O)N3C[C@H](O)C[C@@H]3C)ccn2)c1` [Compound 151, 4-((2S,4R)-4-hydroxy-2-methylpyrrolidine-1-carbonyl)-N-(3-((S)-1-((4-methyl-4H-1,2,4-triazol-3-yl)thio)ethyl)phenyl)picolinamide], the IC50 in assay [1] was no more than 1000 nM. In assay [2], the fold induction at 0.3 µM was 1.01 to 1.3, the fold induction at 1 µM lay within 1.01 to 1.3 and the fold induction at 4 µM was 1.01 to 1.3. Also, the IC50 in assay [3] lay within 301 to 1000 nM. Moreover, the Kd in assay [4] lay in the range of 1000 to 3000 nM.
As to `C[C@H](Sc1nncn1C)c1cccc(N2Cc3c(cccc3C(F)(F)F)C2=O)c1` [Compound 166a, (S)-2-(3-(1-((4-methyl-4H-1,2,4-triazol-3-yl)thio)ethyl)phenyl)-4-(trifluoromethyl)isoindolin-1-one], the IC50 in assay [1] is no more than 500 nM. In addition, in assay [2], the fold induction at 0.3 µM is less than 1, the fold induction at 1 µM was in the range of 1.01 to 1.3 and the fold induction at 4 µM lay in the range of 1.01 to 1.3. Also, in assay [3], the IC50 lay within 100 to 300 nM. This compound showed a Kd in assay [4] of 301 to 1000 nM.
`C[C@H](Sc1nncn1C)c1cccc(N2Cc3c(ccnc3Cl)C2=O)c1` [Compound 167, 4-chloro-2-[3-[(1S)-1-[(4-methyl-1,2,4-triazol-3-yl)sulfanyl]ethyl]phenyl]-3H-pyrrolo[3,4-c]pyridin-1-one]: the IC50 in assay [1] is no more than 500 nM. Besides, in assay [2], the fold induction at 0.3 µM is 1.51 to 1.75, the fold induction at 1 µM lay within 1.01 to 1.3 and the fold induction at 4 µM is greater than 1.76. Moreover, the IC50 in assay [3] fell in the range of 301 to 1000 nM. Besides, the Kd in assay [4] lay in the range of 301 to 1000 nM.
Turning to `CC(Sc1nncn1C)c1cc(F)cc(N2Cc3c(cccc3C(F)(F)F)C2=O)c1` [Compound 168, 2-[3-fluoro-5-[(1R)-1-[(4-methyl-1,2,4-triazol-3-yl)sulfanyl]ethyl]phenyl]-4-(trifluoromethyl)isoindolin-1-one], the IC50 in assay [1] was no more than 500 nM. Further, in assay [2], the fold induction at 0.3 µM was less than 1, the fold induction at 1 µM is less than 1 and the fold induction at 4 µM was 1.01 to 1.3. In addition, the IC50 in assay [3] lay in the range of 301 to 1000 nM. In assay [4], this compound yielded a Kd of 1000 to 3000 nM.
As to `C[C@H](Sc1nncn1C)c1cc(F)cc(N2Cc3c(cccc3C(F)(F)F)C2=O)c1` [Compound 168a, 2-[3-fluoro-5-[(1S)-1-[(4-methyl-1,2,4-triazol-3-yl)sulfanyl]ethyl]phenyl]-4-(trifluoromethyl)isoindolin-1-one], the IC50 in assay [1] is no more than 500 nM. In addition, in assay [2], the fold induction at 0.3 µM was 1.01 to 1.3, the fold induction at 1 µM lay within 1.01 to 1.3 and the fold induction at 4 µM lay in the range of 1.01 to 1.3. Also, the IC50 in assay [3] was in the range of 100 to 300 nM. This compound also registered a Kd in assay [4] of 301 to 1000 nM.
Consider `C[C@H](Sc1nncn1C)c1ccnc(N2Cc3c(cccc3C(F)(F)F)C2=O)c1` [Compound 172a, (S)-(4-(1-((4-methyl-4H-1,2,4-triazol-3-yl)thio)ethyl)pyridin-2-yl)-4-(trifluoromethyl)isoindolin-1-one], for which, in assay [1], the IC50 was no more than 1000 nM. For the same compound, in assay [2], the fold induction at 0.3 µM was less than 1, the fold induction at 1 µM was less than 1 and the fold induction at 4 µM is less than 1. In assay [3], the IC50 was in the range of 301 to 1000 nM. The equilibrium dissociation constant (Kd) in assay [4] was in the range of 1000 to 3000 nM.
Turning to `C[C@H](Cc1nncn1C)c1cccc(NC(=O)c2cccc(S(C)(=O)=O)n2)c1` [Compound 185, (R)-N-(3-(1-(4-methyl-4H-1,2,4-triazol-3-yl)propan-2-yl)phenyl)-6-(methylsulfonyl)picolinamide], the IC50 in assay [1] is no more than 1000 nM. In assay [2], the fold induction at 0.3 µM is 1.01 to 1.3, the fold induction at 1 µM was greater than 1.76 and the fold induction at 4 µM was greater than 1.76. In addition, the IC50 in assay [3] was in the range of 301 to 1000 nM. The Kd in assay [4] lay in the range of 1000 to 3000 nM.
As for `C[C@H](Cc1nncn1C)c1cccc(NC(=O)c2cc(C(C)(C)O)c(Cl)cn2)c1` [Compound 186, (R)-5-chloro-4-(2-hydroxypropan-2-yl)-N-(3-(1-(4-methyl-4H-1,2,4-triazol-3-yl)propan-2-yl)phenyl)picolinamide], in assay [1], the IC50 was no more than 500 nM. Also, in assay [2], the fold induction at 0.3 µM is 1.01 to 1.3, the fold induction at 1 µM lay within 1.31 to 1.5 and the fold induction at 4 µM was greater than 1.76. Also, the IC50 in assay [3] lay in the range of 301 to 1000 nM. In assay [4], this compound displayed a Kd of 301 to 1000 nM.
